Results published in patent publication US20120202756A1, “USE OF PRODRUGS TO AVOID GI MEDIATED ADVERSE EVENTS” (priority 2009, published 2012).
Counter-ions that a name gives are not always drawn. Like-named read-outs stand apart in the source and are kept apart here.

Tests used:
[1] = Stability in USP simulated gastric juice; assay type: in vitro ADME; conditions: USP SGF pH 1.1, pepsin […], prodrug 20 μg/mL
Source text: To minimize the direct inhibitory action of this drug on gastric emptying/gut motility—and resultant nausea—the prodrug should not undergo premature chemical or enzymic cleavage back to the parent drug while within the gut lumen.

[2] = system: Bacteroides fragilis; assay: MIC, clindamycin prodrugs; assay type: cell-based
[3] = system: Bacteroides thetaiotamicron; assay: MIC, clindamycin prodrugs; assay type: cell-based
[4] = system: Bifidobacterium adolescentis; assay: MIC, clindamycin prodrugs; assay type: cell-based; conditions: NCTC 11814
[5] = system: Bifidobacterium dentium; assay: MIC, clindamycin prodrugs; assay type: cell-based; conditions: NCTC 11816
[6] = system: Bifidobacterium longum; assay: MIC, clindamycin prodrugs; assay type: cell-based; conditions: NCTC 11818
[7] = system: Clostridium perfringens; assay: microbe, parasite or virus in culture; assay type: cell-based
[8] = system: Clostridium sporogenes; assay: MIC, clindamycin prodrugs; assay type: cell-based; conditions: ATCC 3584
[9] = system: Eggerthella lenta; assay: MIC, clindamycin prodrugs; assay type: cell-based
[10] = system: Peptostreptococcus anaerobius; assay: MIC, clindamycin prodrugs; assay type: cell-based; conditions: NCTC 11460
[11] = system: Prevotella melaninogenicus; assay: MIC, clindamycin prodrugs; assay type: cell-based
[12] = system: Propionibacterium acnes; assay: MIC, clindamycin prodrugs; assay type: cell-based
[13] = system: Veillonella atypical; assay: MIC, clindamycin prodrugs; assay type: cell-based; conditions: NCTC 11830
[14] = system: Veillonella parvula; assay: MIC, clindamycin prodrugs; assay type: cell-based; conditions: NCTC 11810
[15] = system: Campylobacter coli; assay: MIC, clindamycin prodrugs; assay type: cell-based
[16] = system: Campylobacter jejuni; assay: MIC, clindamycin prodrugs; assay type: cell-based
[17] = system: Helicobacter pylori; assay: MIC, clindamycin prodrugs; assay type: cell-based
[18] = system: Staphylococcusaureus; assay: MIC, clindamycin prodrugs; assay type: cell-based
[19] = system: Staphylococcus epidermidis; assay: MIC, clindamycin prodrugs; assay type: cell-based
[20] = system: Staphylococcus haemolyticus; assay: MIC, clindamycin prodrugs; assay type: cell-based; conditions: antibiotic susceptible clinical isolate
[21] = system: Streptococcus pneumoniae; assay: MIC, clindamycin prodrugs; assay type: cell-based
[22] = system: Streptococcus pyogenes; assay: MIC, clindamycin prodrugs; assay type: cell-based
[23] = system: Group C Streptococcus; assay: MIC, clindamycin prodrugs; assay type: cell-based; conditions: antibiotic-susceptible clinical isolate
[24] = system: Clostridium difficile
[25] = system: Clostridium sordellii; conditions: NCTC 13356
[26] = system: Porphyromonas assacharolyticus; conditions: clinical isolate
[27] = system: Prevotella intermedia; conditions: clinical isolate
[28] = system: Prevotella oralis; conditions: clinical isolate
[29] = system: Veillonella spp.; conditions: clinical isolate
[30] = system: Enterococcus faecium; conditions: vancomycin-susceptible clinical isolate
[31] = antibiotic-susceptible clinical isolate

With CCCC1CC(C(=O)NC(C(C)Cl)C2OC(SC)C(OC(=O)CCC(=O)N[C@H](C(=O)O)C(C)C)C(O)C2O)N(C)C1 (stereo partly drawn) [Clindamycin succinyl valine ester, Clindamycin-2-[succinyl-(S)-valine]ester trifluoroacetate] the “Simulated gastric juice (1 h, 37° C.) % active drug generated” value [1] was <1%, the Minimum inhibitory concentration ([2]; ATCC 25285) was 8 µg/mL and the Minimum inhibitory concentration ([2]; clinical isolate) was 8 µg/mL. It also gave a Minimum inhibitory concentration ([3]; ATCC 29741) of 16 µg/mL, a Minimum inhibitory concentration ([3]; NCTC 10582) of 32 µg/mL and a Minimum inhibitory concentration [4] of 0.5 µg/mL. For the same compound, the Minimum inhibitory concentration [5] was 0.5 µg/mL, the Minimum inhibitory concentration [6] was 0.5 µg/mL and the Minimum inhibitory concentration ([7]; ATCC 13124) was 1 µg/mL. For the same compound, the Minimum inhibitory concentration [7, 31] was 1 µg/mL, the Minimum inhibitory concentration [8] was >64 µg/mL and the Minimum inhibitory concentration ([9]; ATCC 43055) was 8 µg/mL. For the same compound, the Minimum inhibitory concentration ([9]; clinical isolate) was 8 µg/mL, the Minimum inhibitory concentration [10] was 8 µg/mL and the Minimum inhibitory concentration ([11]; clinical isolate (first listed, r37)) was 0.25 µg/mL. It also gave a Minimum inhibitory concentration ([11]; clinical isolate (second listed, r38)) of 0.25 µg/mL, a Minimum inhibitory concentration [12] of 2 µg/mL and a Minimum inhibitory concentration ([12]; clinical isolate MIC clindamycin 0.5 mg/L) of 2 µg/mL. The Minimum inhibitory concentration [13] was 2 µg/mL, the Minimum inhibitory concentration [14] was 1 µg/mL and the Minimum inhibitory concentration ([15]; ATCC 33559) was “≦0.03 ug/mL”. The Minimum inhibitory concentration ([15]; clinical isolate) was “≦0.03 ug/mL”, the Minimum inhibitory concentration ([16]; ATCC 33560) was “≦0.03 ug/mL” and the Minimum inhibitory concentration ([16]; clinical isolate) was “≦0.03 ug/mL”. The Minimum inhibitory concentration ([17]; ATCC 43504) was “≦0.03 ug/mL”, the Minimum inhibitory concentration ([17]; clinical isolate (r56)) was “≦0.03 ug/mL” and the Minimum inhibitory concentration ([17]; clinical isolate (r57)) was “≦0.03 ug/mL”. The Minimum inhibitory concentration ([17]; clinical isolate (r100)) was “≦0.03 ug/mL”, the Minimum inhibitory concentration ([17]; clinical isolate (r101)) was “≦0.03 ug/mL” and the Minimum inhibitory concentration ([18]; ATCC 25923 - antibiotic-susceptible type strain) was 1 µg/mL. For the same compound, the Minimum inhibitory concentration ([18]; ATCC 29213 - antibiotic-susceptible type strain) was 2 µg/mL, the Minimum inhibitory concentration ([18]; ATCC 43300 - methicillin-resistant type strain) was >64 µg/mL and the Minimum inhibitory concentration ([19]; antibiotic susceptible clinical isolate) was 2 µg/mL. It also gave a Minimum inhibitory concentration ([19]; methicillin-resistant clinical isolate) of 4 µg/mL, a Minimum inhibitory concentration [20] of 2 µg/mL and a Minimum inhibitory concentration ([21]; ATCC 49619 antibiotic-susceptible type strain) of 0.5 µg/mL. For the same compound, the Minimum inhibitory concentration ([21]; penicillin-susceptible clinical isolate) was 0.5 µg/mL, the Minimum inhibitory concentration ([22]; Macrolide (MLS) resistant clinical isolate) was 2 µg/mL and the Minimum inhibitory concentration [22, 31] was 1 µg/mL. The Minimum inhibitory concentration [23] was 1 µg/mL, the Minimum inhibitory concentration ([24]; ATCC 700057) was >64 µg/mL and the Minimum inhibitory concentration ([24]; NCTC 13366 - NAP1/027) was 64 µg/mL. The Minimum inhibitory concentration [24, 31] was >64 µg/mL, the Minimum inhibitory concentration ([24]; ribotype 002 - clinical isolate) was 64 µg/mL and the Minimum inhibitory concentration ([24]; ribotype 011 - clinical isolate) was 64 µg/mL. The Minimum inhibitory concentration ([24]; ribotype 027 - clinical isolate) was 64 µg/mL, the Minimum inhibitory concentration ([24]; ribotype 050 - clinical isolate) was 32 µg/mL and the Minimum inhibitory concentration ([24]; ribotype 176 - clinical isolate) was >64 µg/mL. The Minimum inhibitory concentration [25] was 16 µg/mL, the Minimum inhibitory concentration [26] was 0.12 µg/mL and the Minimum inhibitory concentration [27] was 0.12 µg/mL. The Minimum inhibitory concentration [28] was “≦0.03 ug/mL”, the Minimum inhibitory concentration [29] was 0.5 µg/mL and the Minimum inhibitory concentration [30] was >64 µg/mL.
